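Exposure lasted 48 hours, with cells grown in 96-well plates and compounds tested at five concentrations. The concentration for 50% growth inhibition is given as GI50.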 Calls of active or inactive are those of the source. No stated cut-off is given here; in the data, active = GI50 up to about 1.1 µM and inactive = higher.
What was measured:
Experiment in all cases: inhibition of tumour cell growth, NCI panel, 48 h
786-0 = test system: 786-0
A549 = test system: A549
ACHN = test system: ACHN
BT-549 = test system: BT-549
CAKI-1 = test system: CAKI-1
CCRF-CEM = test system: CCRF-CEM
COLO 205 = test system: COLO 205
DU-145 = test system: DU-145
EKVX = test system: EKVX
HCC 2998 = test system: HCC 2998
HCT-116 = test system: HCT-116
HCT-15 = test system: HCT-15
HL-60 = test system: HL-60
HOP-62 = test system: HOP-62
HOP-92 = test system: HOP-92
HT-29 = test system: HT-29
Hs-578T = test system: Hs-578T
IGROV-1 = test system: IGROV-1
K562 = test system: K562
KM12 = test system: KM12
LOX IMVI = test system: LOX IMVI
M14 = test system: M14
MCF7 = test system: MCF7
MDA-MB-231 = test system: MDA-MB-231
MDA-MB-435 = test system: MDA-MB-435
MDA-N = test system: MDA-N
MOLT-4 = test system: MOLT-4
Malme-3M = test system: Malme-3M
NCI-H226 = test system: NCI-H226
NCI-H23 = test system: NCI-H23
NCI-H460 = test system: NCI-H460
NCI-H522 = test system: NCI-H522
NCI/ADR-RES = test system: NCI/ADR-RES
OVCAR-3 = test system: OVCAR-3
OVCAR-4 = test system: OVCAR-4
OVCAR-5 = test system: OVCAR-5
OVCAR-8 = test system: OVCAR-8
PC-3 = test system: PC-3
RPMI-8226 = test system: RPMI-8226
RXF 393 = test system: RXF 393
SF-268 = test system: SF-268
SF-295 = test system: SF-295
SF-539 = test system: SF-539
SK-MEL-28 = test system: SK-MEL-28
SK-MEL-2 = test system: SK-MEL-2
SK-MEL-5 = test system: SK-MEL-5
SK-OV-3 = test system: SK-OV-3
SN12C = test system: SN12C
SNB-19 = test system: SNB-19
SNB-75 = test system: SNB-75
SR = test system: SR
SW-620 = test system: SW-620
T47D = test system: T47D
TK-10 = test system: TK-10
U-251 = test system: U-251
UACC-257 = test system: UACC-257
UACC-62 = test system: UACC-62
UO-31 = test system: UO-31

O=C(NNC(=O)c1ccccc1SSc1ccccc1C(=O)NNC(=O)c1ccccc1S)c1ccccc1S
GI50 (786-0): 11.4 µM (inactive) | GI50 (A549): 13.4 µM (inactive) | GI50 (ACHN): 19.3 µM (inactive) | GI50 (BT-549): 13.5 µM (inactive) | GI50 (CAKI-1): 12.9 µM (inactive) | GI50 (CCRF-CEM): 1.29 µM (inactive) | GI50 (COLO 205): 36.4 µM (inactive) | GI50 (DU-145): 6.55 µM (inactive) | GI50 (EKVX): 15 µM (inactive) | GI50 (HCC 2998): 48.2 µM (inactive) | GI50 (HCT-116): 7.18 µM (inactive) | GI50 (HCT-15): 9.16 µM | GI50 (HL-60): 1.73 µM (inactive) | GI50 (HOP-62): 25.9 µM (inactive) | GI50 (HOP-92): 39.2 µM (inactive) | GI50 (HT-29): 30.3 µM (inactive) | GI50 (Hs-578T): 0.404 µM (active) | GI50 (IGROV-1): 11.6 µM (inactive) | GI50 (K562): 11.3 µM (inactive) | GI50 (KM12): 30.5 µM (inactive) | GI50 (LOX IMVI): 11.9 µM (inactive) | GI50 (M14): 17.7 µM (inactive) | GI50 (MCF7): 15.2 µM (inactive) | GI50 (MDA-MB-231): 19.6 µM (inactive) | GI50 (MDA-MB-435): 16.1 µM (inactive) | GI50 (MDA-N): 20 µM (inactive) | GI50 (MOLT-4): 6 µM (inactive) | GI50 (Malme-3M): 21.6 µM (inactive) | GI50 (NCI-H226): 42.4 µM (inactive) | GI50 (NCI-H23): 12.3 µM (inactive) | GI50 (NCI-H460): 10.4 µM (inactive) | GI50 (NCI-H522): 0.49 µM (active) | GI50 (NCI/ADR-RES): 20 µM (inactive) | GI50 (OVCAR-3): 31 µM (inactive) | GI50 (OVCAR-4): 31.1 µM (inactive) | GI50 (OVCAR-5): 44.5 µM (inactive) | GI50 (OVCAR-8): 16.3 µM (inactive) | GI50 (PC-3): 24.6 µM (inactive) | GI50 (RPMI-8226): 43.1 µM (inactive) | GI50 (RXF 393): 64.9 µM (inactive) | GI50 (SF-268): 4.24 µM (inactive) | GI50 (SF-295): 10.6 µM (inactive) | GI50 (SF-539): 13.8 µM (inactive) | GI50 (SK-MEL-28): 24.3 µM (inactive) | GI50 (SK-MEL-2): 23.7 µM (inactive) | GI50 (SK-MEL-5): 39.7 µM (inactive) | GI50 (SK-OV-3): 46.5 µM (inactive) | GI50 (SN12C): 18.5 µM (inactive) | GI50 (SNB-19): 26.2 µM (inactive) | GI50 (SNB-75): 11.7 µM (inactive) | GI50 (SR): 5.35 µM (inactive) | GI50 (SW-620): 12 µM (inactive) | GI50 (T47D): 9.16 µM (inactive) | GI50 (TK-10): 51.8 µM (inactive) | GI50 (U-251): 19.5 µM (inactive) | GI50 (UACC-257): 27.7 µM (inactive) | GI50 (UACC-62): 17.5 µM (inactive) | GI50 (UO-31): 9.95 µM (inactive)
